Source: ChEMBL document CHEMBL1221410, “Antioxidant flavone glycosides from the leaves of Fargesia robusta” (J Nat Prod, 2010)

What was measured:
[1] = Antioxidant activity against AAPH-induced lipid peroxidation assessed as trolox equivalent of peroxy radical scavenging activity after 10 mins by ORAC assay; type: functional
[2] = Antioxidant activity assessed as trolox equivalent of ABTS radical scavenging activity after 12 to 16 hrs by spectrophotometry; type: functional

SMILES	Activity [1]	Activity [2]
C[C@@H]1O[C@@H](O[C@@H]2C(=O)[C@H](O)[C@@H](C)O[C@H]2c2c(O)cc3oc(-c4ccc(O)c(O)c4)cc(=O)c3c2O)[C@H](O)[C@H](O)[C@H]1O	5.7	0.646
C[C@H]1O[C@@H](c2c(O[C@@H]3O[C@H](CO)[C@@H](O)[C@H](O)[C@H]3O)cc3oc(-c4ccc(O)c(O)c4)cc(=O)c3c2O)C[C@H](O)[C@H]1O	26.8	0.332
COc1cc(-c2cc(=O)c3c(O[C@@H]4O[C@H](CO)[C@@H](O)[C@H](O)[C@H]4O)cc(O)cc3o2)cc(OC)c1O	18.2	0.063
O=c1cc(-c2ccc(O)c(O)c2)oc2cc(O)c([C@@H]3O[C@H](CO)[C@@H](O)[C@H](O)[C@H]3O)c(O)c12	66.5	1.56
C[C@H]1O[C@@H](c2c(O)cc3oc(-c4ccc(O[C@@H]5O[C@H](CO)[C@@H](O)[C@H](O)[C@H]5O)c(O)c4)cc(=O)c3c2O)C[C@H](O)[C@H]1O	8.3	0.075
O=c1c(O)c(-c2ccc(O)c(O)c2)oc2cc(O)cc(O)c12	8.7	3.99
